Test results reported in publication PMC5333395, “Assessing histone demethylase inhibitors in cells: lessons learned” (Epigenetics & Chromatin, 2017).

Legend:
Type in all cases: cell-based
HeLa cells = experiment: Hoechst 33342/Yo-Pro 3/Annexin triple staining, live cell death pattern analysis; conditions: HeLa cells, 24 h, dose-dependent
Protocol: Cells exposed to the inhibitors for 24 h were stained with Hoechst 33342 (1 µM), Yo-Pro 3 (1 µM) and Annexin V (0.3 μL per well) for 1 h. Cellular fluorescence was measured using the IN Cell 6000 (GE) using the following set-up parameters: bright-field transmitted light at 50% for 15 ms; Hoechst 33342 was excited by 35-ms exposure(Ex 360–400 nm/Em 410–480 nm), Yo-Pro 3 by 35-ms exposure(Ex 560–580 nm/Em 650–760 nm) and Annexin V (Alexa 488) by 45-ms exposure(Ex 460–490 nm/Em 500–550 nm). All the generated data were analysed using the IN Cell Analyser software, and three categories were distinguished: healthy cells, apoptosis and necrosis—calculated as percentage of each class for every concentration used.

KDM5B = KDM5B (Homo sapiens, UniProt Q9UGL1); experiment: High-content immunofluorescence (IF) assay, overexpressed full-length FLAG-tagged KDM in HeLa cells; design: transiently transfecting the full-length FLAG-tagged demethylase (WT) into cells; expressed in transfected cells; host or cells: HeLa; conditions: for EC50: HeLa cells overexpressing WT KDM5B, H3K4me3 mark, 24 h, read-out: KDM5B, in cells, EC50 by IF assay (head: IC50); for Effect on H3K4me3 mark in KDM5B IF assay, in words: HeLa cells transfected with KDM5B
Protocol: (§1) HeLa cells (ATCC) were cultured at 37 °C and 5% CO2 in Minimal Essential Media—Eagle (Sigma-Aldrich, UK) supplemented with 10% heat-inactivated foetal calf serum (FCS) (Gibco, UK), and 1% L-glutaMAX (Gibco, UK) in T75 flasks (Sarstedt, UK) and passaged regularly with TrypLE (Life Technologies, UK) before cells reached confluence. On day 0, 7000 cells per well were plated on a 96-well clear bottom CellCarrier plate (PerkinElmer, UK). The next day the cells were transfected with Lipofectamine 3000 (ThermoFisher Scientific, UK) following the manufacturer’s instructions. Briefly, 0.1 µg of plasmid DNA (encoding for the respective demethylase) and 0.15 µL of Lipofectamine 3000 were diluted in separate tubes containing 5 µL OptiMEM. 0.15 µL of P3000 was added to the tube with the DNA. The two solutions were then mixed gently and allowed to incubate for 5 min at room temperature. Next, the DNA-lipid complex was added to the cells for 4 h at 37 °C and 5% CO2.
(§2) Compound dilutions were made in a 96-well PCR plate (Starlab, UK). The culture medium was supplemented with 0.4% DMSO so that the solvent concentration was maintained throughout. Compounds were serially diluted at a 1:2 or 1:3 dilution ratio. Next, the cell culture plate was removed from the incubator and the medium was gently aspirated and replaced with the fresh medium containing diluted compounds.
(§3) Then cells were rinsed once with PBS and blocked for 30 min at room temperature using 3% v/v foetal calf serum diluted in PBS.

KDM4A = biological target: T1, KDM4A (Homo sapiens, UniProt O75164); experiment: as above; conditions: HeLa cells overexpressing WT KDM4A, H3K9me3 mark, 24 h; read-out: KDM4A, in cells, EC50 by IF assay (head: IC50)
T1 construct: transiently transfecting the full-length FLAG-tagged demethylase (WT) into cells; expressed in transfected cells; host or cells: HeLa
T1 sequence (O75164 1-1064 A482E): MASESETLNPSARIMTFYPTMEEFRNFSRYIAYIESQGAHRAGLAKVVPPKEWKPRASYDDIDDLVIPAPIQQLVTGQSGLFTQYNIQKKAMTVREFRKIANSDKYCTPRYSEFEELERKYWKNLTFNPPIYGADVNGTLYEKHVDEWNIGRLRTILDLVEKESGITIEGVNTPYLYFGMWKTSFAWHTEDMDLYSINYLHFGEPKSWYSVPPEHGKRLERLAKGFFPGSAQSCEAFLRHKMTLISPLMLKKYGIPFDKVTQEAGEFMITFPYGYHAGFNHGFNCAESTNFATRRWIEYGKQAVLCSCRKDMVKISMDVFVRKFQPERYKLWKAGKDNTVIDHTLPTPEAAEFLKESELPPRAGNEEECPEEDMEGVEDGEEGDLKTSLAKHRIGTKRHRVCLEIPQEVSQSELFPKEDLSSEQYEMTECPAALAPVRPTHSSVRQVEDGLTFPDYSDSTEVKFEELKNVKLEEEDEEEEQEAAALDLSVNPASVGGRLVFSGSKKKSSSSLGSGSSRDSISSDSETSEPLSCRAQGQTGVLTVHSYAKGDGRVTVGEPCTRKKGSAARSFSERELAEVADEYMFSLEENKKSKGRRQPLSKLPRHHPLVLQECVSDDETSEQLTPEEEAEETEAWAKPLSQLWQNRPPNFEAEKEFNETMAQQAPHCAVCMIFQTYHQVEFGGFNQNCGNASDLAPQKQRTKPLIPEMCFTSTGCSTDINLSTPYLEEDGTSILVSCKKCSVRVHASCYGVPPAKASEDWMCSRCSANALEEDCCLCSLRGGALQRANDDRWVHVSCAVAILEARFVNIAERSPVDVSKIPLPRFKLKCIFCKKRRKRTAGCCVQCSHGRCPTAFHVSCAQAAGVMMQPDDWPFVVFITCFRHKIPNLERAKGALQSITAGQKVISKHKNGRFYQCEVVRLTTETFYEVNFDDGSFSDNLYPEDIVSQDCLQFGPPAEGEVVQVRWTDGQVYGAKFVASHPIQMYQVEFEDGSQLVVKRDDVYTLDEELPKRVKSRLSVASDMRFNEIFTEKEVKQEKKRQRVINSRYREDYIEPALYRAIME
Protocol: as §1, §2, §3

KDM5D = biological target: T2, KDM5D (Homo sapiens, UniProt Q9BY66); experiment: as above; conditions: HeLa cells overexpressing WT KDM5D, H3K4me3 mark, 24 h; for EC50: read-out: KDM5D, in cells, EC50 by IF assay (head: IC50)
T2 sequence (Q9BY66 458-749 limits assumed): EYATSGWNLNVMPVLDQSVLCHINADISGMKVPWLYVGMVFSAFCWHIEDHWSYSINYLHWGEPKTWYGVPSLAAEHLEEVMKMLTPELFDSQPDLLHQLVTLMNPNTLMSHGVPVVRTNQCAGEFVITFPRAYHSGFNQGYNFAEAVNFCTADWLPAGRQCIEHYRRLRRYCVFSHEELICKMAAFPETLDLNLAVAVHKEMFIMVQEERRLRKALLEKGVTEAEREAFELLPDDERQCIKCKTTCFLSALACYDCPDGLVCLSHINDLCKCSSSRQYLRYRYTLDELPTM
Protocol: as §1, §2, §3

KDM5B, sequence (Q9UGL1 whole entry): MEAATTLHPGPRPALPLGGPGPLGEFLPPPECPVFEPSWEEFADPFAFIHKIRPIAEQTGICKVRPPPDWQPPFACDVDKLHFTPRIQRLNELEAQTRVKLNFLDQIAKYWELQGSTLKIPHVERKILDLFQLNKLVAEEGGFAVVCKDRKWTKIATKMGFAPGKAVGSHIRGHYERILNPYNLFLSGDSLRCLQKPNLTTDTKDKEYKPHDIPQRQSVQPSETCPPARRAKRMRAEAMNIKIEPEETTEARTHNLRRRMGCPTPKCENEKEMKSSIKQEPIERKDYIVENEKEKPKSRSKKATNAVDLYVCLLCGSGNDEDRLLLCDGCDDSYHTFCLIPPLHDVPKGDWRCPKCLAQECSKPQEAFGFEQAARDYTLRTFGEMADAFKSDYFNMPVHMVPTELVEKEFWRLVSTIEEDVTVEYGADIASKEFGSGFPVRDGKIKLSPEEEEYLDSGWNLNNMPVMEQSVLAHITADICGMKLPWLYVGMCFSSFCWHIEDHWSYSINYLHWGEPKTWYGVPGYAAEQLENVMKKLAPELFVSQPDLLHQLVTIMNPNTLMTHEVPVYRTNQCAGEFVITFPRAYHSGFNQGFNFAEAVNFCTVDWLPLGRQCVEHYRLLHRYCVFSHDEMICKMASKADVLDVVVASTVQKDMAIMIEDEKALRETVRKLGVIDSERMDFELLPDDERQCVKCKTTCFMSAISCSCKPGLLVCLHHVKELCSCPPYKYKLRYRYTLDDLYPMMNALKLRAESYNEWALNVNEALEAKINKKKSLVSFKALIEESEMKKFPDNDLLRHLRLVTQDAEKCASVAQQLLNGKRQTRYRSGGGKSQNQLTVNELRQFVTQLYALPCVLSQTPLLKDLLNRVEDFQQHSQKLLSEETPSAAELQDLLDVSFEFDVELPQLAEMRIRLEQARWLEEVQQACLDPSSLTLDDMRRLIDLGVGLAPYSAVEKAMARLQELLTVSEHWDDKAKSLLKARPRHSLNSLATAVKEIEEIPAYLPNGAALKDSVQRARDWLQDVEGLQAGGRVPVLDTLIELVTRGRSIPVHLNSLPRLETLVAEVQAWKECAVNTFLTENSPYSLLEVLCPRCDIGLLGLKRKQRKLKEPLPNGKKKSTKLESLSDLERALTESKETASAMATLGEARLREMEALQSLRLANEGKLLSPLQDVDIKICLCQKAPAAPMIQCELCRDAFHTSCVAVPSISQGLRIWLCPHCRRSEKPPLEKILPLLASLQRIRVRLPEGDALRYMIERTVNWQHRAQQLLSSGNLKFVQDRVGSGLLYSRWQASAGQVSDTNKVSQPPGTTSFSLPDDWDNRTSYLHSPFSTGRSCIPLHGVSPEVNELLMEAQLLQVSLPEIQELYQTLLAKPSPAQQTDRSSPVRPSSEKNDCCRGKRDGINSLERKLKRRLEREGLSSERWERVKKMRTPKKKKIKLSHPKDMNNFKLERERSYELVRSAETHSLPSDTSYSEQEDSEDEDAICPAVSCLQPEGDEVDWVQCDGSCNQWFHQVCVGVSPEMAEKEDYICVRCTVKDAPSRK

| Compound | Cell death in triple staining (healthy, apoptotic, necrotic), in words (HeLa cells) | EC50 (KDM5B) [µM] | Effect on H3K4me3 mark in KDM5B IF assay, in words (KDM5B) | EC50 (KDM4A) [µM] | EC50 (KDM5D) [µM] | KDM5D, in cells, EC50 by IF assay (head: IC50) (KDM5D) |
| --- | --- | --- | --- | --- | --- | --- |
| CPI-455 | did not induce cell death | 60 | dose-dependent increase of the H3K4me3 mark |  |  |  |
| CCOC(=O)c1ccnc(CNCC(=O)N(CC)CCN(C)C)c1 [KDOAM-21] | did not induce cell death | 0.7 |  | 70 | 4 |  |
| O=c1[nH]cnc2c(-n3cc(CCN4CCC(c5cccc(Cl)c5)CC4)cn3)cccc12 [CCT366293, 8-(4-(2-(4-(3-Chlorophenyl)piperidin-1-yl)ethyl)-1H-pyrazol-1-yl)quinazolin-4(3H)-one] |  | > 100 | no effect | > 100 |  |  |
| CCN(CCN(C)C)C(=O)CNCc1cncc(C(N)=O)c1 [KDOAM-32] | did not induce cell death | > 100 |  | > 100 | > 100 |  |
| Clc1ccc(N/N=C(\c2ccccc2)c2ccccn2)nc1 [JIB-04 E] | little to no cell toxicity | 3 | dose-dependent increase of H3K4me3 |  |  |  |
| CCN(CCN(C)C)C(=O)CNCc1cc(C(=O)O)ccn1 [KDOAM-20] | did not induce cell death | 20 |  |  |  | little inhibition |
